Data as given in patent publication US20130018039A1, “IMIDAZOLYL-IMIDAZOLES AS KINASE INHIBITORS” (priority 2010, published 2013).

Molecular target: T1, RIPK2 (full length FLAG His tagged RIPK2; RIP2 kinase) (Homo sapiens, UniProt O43353)
T1 construct: Full length FLAG His tagged RIPK2 was purified from a Baculovirus expression system; FLAG (N); 6His (N); made in house; host or cells: Spodoptera frugiperda (Sf9) insect cells, baculovirus
Experiment: Fluorescent polarization based binding assay, competition with a fluorescently labeled ATP competitive ligand at the ATP binding pocket of RIPK2
Details: pIC50s averaged, minimum of 2 experiments; fluorescent ligand 5 nM; read-out: mean pIC50 (converted)
Description: A fluorescent polarization based binding assay was developed to quantitate interaction of novel test compounds at the ATP binding pocket of RIPK2, by competition with a fluorescently labeled ATP competitive ligand. Full length FLAG His tagged RIPK2 was purified from a Baculovirus expression system and was used at a final assay concentration of twice the KDapparent. A fluorescent labeled ligand (5-({[2-({[3-({4-[(5-hydroxy-2-methylphenyl)amino]-2-pyrimidinyl}amino)phenyl]carbonyl}amino)ethyl]amino}carbonyl)-2-(6-hydroxy-3-oxo-3H-xanthen-9-yl)benzoic acid, prepared as described below) was used at a final assay concentration of 5 nM. Both the enzyme and ligand were prepared in solutions in 50 mM HEPES pH7.5, 150 mM NaCl, 10 mM MgCl2, 1 mM DTT, and 1 mM CHAPS. Test compounds were prepared in 100% DMSO and […] was dispensed to individual wells of a multiwell plate. Next, 5 ul RIPK2 was added to the test compounds at twice the final assay concentration, and incubated at room temperature for 10 minutes. […] Finally, samples were read on an instrument capable of measuring fluorescent polarization. Test compound inhibition was expressed as percent (%) inhibition of internal assay controls.
For concentration response experiments, normalized data were fit and pIC50s determined using conventional techniques. […]

T1 sequence (O43353 whole entry): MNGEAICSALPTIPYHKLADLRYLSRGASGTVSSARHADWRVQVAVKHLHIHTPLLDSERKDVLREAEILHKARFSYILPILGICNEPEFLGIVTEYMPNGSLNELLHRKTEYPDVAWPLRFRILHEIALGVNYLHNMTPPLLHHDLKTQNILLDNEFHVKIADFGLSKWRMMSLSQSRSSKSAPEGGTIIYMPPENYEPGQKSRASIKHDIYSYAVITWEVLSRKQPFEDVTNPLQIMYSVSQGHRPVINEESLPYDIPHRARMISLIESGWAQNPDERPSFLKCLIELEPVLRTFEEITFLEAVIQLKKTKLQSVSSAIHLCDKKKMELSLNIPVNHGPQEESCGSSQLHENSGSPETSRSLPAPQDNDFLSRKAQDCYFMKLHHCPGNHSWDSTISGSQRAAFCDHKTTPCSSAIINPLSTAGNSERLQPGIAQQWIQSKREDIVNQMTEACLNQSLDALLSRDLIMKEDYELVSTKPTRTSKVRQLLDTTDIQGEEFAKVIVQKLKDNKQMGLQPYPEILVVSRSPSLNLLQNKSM

IC50 [µM] | Compound
10 | CNC(=O)c1ccc2c(c1)nc(-c1c[nH]c(-c3ccc(Cl)cc3)n1)n2Cc1ccccn1 [Example 2, 2-[2-(4-chlorophenyl)-1H-imidazol-4-yl]-N-methyl-1-(2-pyridinylmethyl)-1H-benzimidazole-5-carboxamide]
10 | COCCNC(=O)c1ccc2c(c1)nc(-c1cnc(-c3ccccc3)[nH]1)n2CCOC [Example 39, N,1-bis[2-(methyloxy)ethyl]-2-(2-phenyl-1H-imidazol-4-yl)-1H-benzimidazole-5-carboxamide]
